Measured values from patent publication US20210386709A1, “COMPOSITIONS AND METHODS FOR SUPPRESSING MSUT2” (United States Government As Represented By The Department …, priority 2020, published 2021).
“And” between values parts separate entries of the source, which are not always exact repeats. Equal entries are not always repeated.

What was measured:
GST-MSUT2 = target: T1, GST-MSUT2 (Homo sapiens, UniProt Q6PJT7); assay: Alpha Screen assay of biotinylated poly(A) RNA:GST-MSUT2 binding; settings: by Alpha assay
T1 construct: Targeted construct consisted of the c-terminal end (dark blue and amino acids 601-736) of MSUT2; made in house; host or cells: E. coli BL21 (DE3)
T1 sequence (Q6PJT7 601-736): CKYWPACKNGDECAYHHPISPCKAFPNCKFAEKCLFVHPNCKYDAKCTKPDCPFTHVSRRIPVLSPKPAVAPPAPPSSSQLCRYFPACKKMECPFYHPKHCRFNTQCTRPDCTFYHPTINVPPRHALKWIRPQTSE
Description: (§1) Alpha Screen Assay. Samples were set up in 384 well Perkin Elmer white opaque-bottom plates (PE06). A total reaction volume of […] was plated in 384 format using a CyBio Well Vario (6 μL of donor beads (10 μg/mL), 3 μL biotinylated RNA (250 nM), 3 μL GST-MSUT2 protein (250 nM) per well). 50 nL of compounds were transferred to wells via CyBio Vario equipped with Pin Tool. This mixture was incubated at room temperature for 30 minutes away from light. Next 3 μL of acceptor beads (1.25 μg/mL) was added. Plates were incubated at room temperature away from light for 60 minutes and subsequently read on a Perkin Elmer EnVision multimode microplate reader equipped with stackers using a standard 384-well Alpha Assay software protocol.
Results. Alpha Screen design and underlying principle. Alpha Screen technology relies on donor beads, coated with a hydrogel excitable by 680 nm, brought within close proximity to an acceptor bead leading to light emission and detection. In this assay, streptavidin coated donor beads tightly bind to biotinylated-poly(A) RNA while the glutathione-coated acceptor bead binds to GST-tagged MSUT2 protein. […] When this interaction is blocked by an inhibitor, the proximity threshold for donor and acceptor beads is not met, singlet oxygen transference cannot occur, and light is not emitted by the acceptor bead (FIG. 1a).
Identification and validation of MSUT2 inhibitory compounds from NIHCC library. The single-point primary screen was conducted in duplicate and utilized the FP assay conditions determined herein (e.g., 125 nM MSUT2 RNABP and 10 nM FAM-RNA probe) with 10 μM library compounds added in a 96-well format. […] Compound specificity was empirically tested by counter screening against PABPN1, a regulator of the length of mRNA poly(A) tails (Apponi, L. H. et al. Hum Mol Genet 19, 1058-1065, (2010); and Benoit, B. et al. Dev Cell 9, 511-522, (2005)). IC50 of each of the previous 8 compounds was determined for PABPN1 using fluorescence polarization (FIG. 11), and a specificity ratio determined (Table 3). An Alpha Screen (AS) assay was developed as an orthogonal screen. Briefly, in this screen, biotinylated RNA binds streptavidin-coated donor beads, while GST-MSUT2 ZF binds glutathione-coated acceptor beads. […] Toxicity of these compounds in a HEK cell model was determined using a standard Promega Cell Titer Glo assay.
Alpha Screen Assay. […] The plate was then incubated again at room temperature away from light for 60 minutes and subsequently read on a Perkin Elmer EnSight multimode microplate reader using a standard 96-well Alpha Assay protocol.

PABPN1 = target: T2, PABPN1 (Homo sapiens, UniProt Q86U42); assay: Alpha Screen selectivity screen against PABPN1; type: binding; settings: Alpha Screen dose response IC50s
T2 construct: made in house; host or cells: E. coli BL21 (DE3)
T2 sequence (Q86U42 1-306): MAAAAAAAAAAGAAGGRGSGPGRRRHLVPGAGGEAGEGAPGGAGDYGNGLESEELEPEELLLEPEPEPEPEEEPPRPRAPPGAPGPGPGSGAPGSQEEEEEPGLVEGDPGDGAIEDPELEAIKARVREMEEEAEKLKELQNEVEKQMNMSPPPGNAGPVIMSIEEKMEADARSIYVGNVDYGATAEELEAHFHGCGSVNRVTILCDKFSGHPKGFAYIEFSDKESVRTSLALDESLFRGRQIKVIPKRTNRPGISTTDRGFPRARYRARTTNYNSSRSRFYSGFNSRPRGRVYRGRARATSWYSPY
Description: FIGS. 6A-B show the Selectivity screen. Compounds were screened by Alpha Screen (FIG. 6A) for MSUT2 and PABPN1 (FIG. 6B) dose response. IC50s indicated.
as §1
Screening of the Spectrum Collection. […] The hit window consisted of those compounds 7 standard deviations from the mean (FIG. 2a). In follow up dose-response testing, 11 of the 20 initial hits were validated and moved forward to further validation studies (FIG. 3). Unbound fluorescein-labeled RNA rapidly rotates in solution compared to MSUT2-bound. […] These four compounds were tested for an effect on cell viability using a HEK-cell model. […]

HEK-293 cells = assay: Cell viability, Promega Cell Titer Glo
Description: Cell culture and cytotoxicity screen. […] Cell viability was assessed as using Promega Cell Titer Glo (Promega G7570) per manufacturer protocol. Briefly, HEK-293 cells were grown to 70% confluence in a 96 well plate were treated with indicated concentrations of compounds and incubated for 72 hours at 37° C. Plates were read for luminescence on Perkin Elmer Enspire Alpha.
Cell viability was assessed. Briefly, HEK-293 cells grown to 70% confluence in a 96 well dish were treated with varying concentrations of compound (final concentration of 2% DMSO) and incubated for 72 hours. Next, Promega Cell Titer Glo assay was used to assess viability per manufacturer instructions (Promega G7570).

O=c1c2ccccc2[se]n1-c1ccccc1 [Ebselen] was tested, and the Ki (GST-MSUT2) was 1580 nM, the “fold selectivity for MSUT2 over PABPN1” value (PABPN1) was 5 fold and 4.6 fold and the “toxicity (effect on cell viability)” value (HEK-293 cells; HEK-293, 72 hours, indicated concentrations) was “did not show toxicity in a dose-dependent manner”. The “reduction of cell viability” value (HEK-293 cells; HEK-293, at the tested doses, compared to DMSO control) was “roughly 40%”.
